Measurements reported in US7176276B2, “Antimicrobial peptide and use thereof” (Toagosei Co., Ltd., priority 2003, dated 2007).
Ends that are not written are not given here.

Experiments:
Format in all cases: cell-based
[1] = system: Bacillus subtilis ATCC 6633; conditions: ATCC 6633, 24 h
Description: (§1) Gram-Positive Bacteria: • Staphylococcus aureus IFO 12732 • Staphylococcus aureus COL1 (MRSA) • Bacillus cereus IFO 3001 • Bacillus subtilis ATCC 6633 • Micrococcus luteus IFO 12708
(§2) That is, each sample was diluted with a liquid bouillon medium (mfd. by DIFCO, product name “NUTRIENT BROTH Dehydrated”) to a peptide concentration of 500, 250, 125, 62.5, 31.3, 15.6, 7.8, 3.9, 1.9, 1.0 or 0.5 […] and dispensed in 150 μl portions into a 96 well microplate. On the other hand, a cell suspension (about 2×10^6 cells/ml) prepared by statically culturing each strain at 37° C. for 18 hours in LB Broth, Lennox (mfd. by DIFCO) was inoculated into each well of the 96 well microplate in an amount equivalent to that of the drug solution (the aforementioned peptide-containing bouillon medium). After the inoculation, the culturing was started in an incubator of 37° C., and the presence of bacterial growth was examined based on the turbidity after 24 hours. The minimum peptide concentration by which increase in the turbidity due to bacterial growth was not observed at the time of the measurement was defined as the MIC in this Example.

[2] = system: Micrococcus luteus IFO 12708; conditions: IFO 12708, 24 h
Description: as §1, §2

[3] = system: Staphylococcus aureus IFO 12732; conditions: IFO 12732, 24 h
Description: as §1, §2

Bacillus cereus IFO 3001 = conditions: IFO 3001, 24 h
Description: as §1, §2

[4] = system: Salmonella enteritidis IFO 3313; conditions: IFO 3313, 24 h
Description: as §2

[5] = system: Staphylococcus aureus COL1 (MRSA); conditions: COL1, 24 h
Description: as §1, §2

[6] = system: Klebsiella pneumoniae ATCC 4352; conditions: ATCC 4352, 24 h
Description: (§3) Escherichia coli IFO 12713 • Escherichia coli 0157:H7 sakai • Klebsiella pneumoniae ATCC 4352 • Pseudomonas aeruginosa ATCC 10145
as §2

[7] = system: Escherichia coli IFO 12713; conditions: IFO 12713, 24 h
Description: as §3, §2

[8] = system: Pseudomonas aeruginosa ATCC 10145; conditions: ATCC 10145, 24 h
Description: as §3, §2

Substance	MIC [1] [µg/mL]	MIC [2] [µg/mL]	MIC [3] [µg/mL]	MIC (Bacillus cereus IFO 3001) [µg/mL]	MIC [4] [µg/mL]	MIC [5] [µg/mL]	MIC [6] [µg/mL]	MIC [7] [µg/mL]	MIC [8] [µg/mL]
LLRKWWWKRLL-NH2 (C-terminus assumed) [compound 1, LLRKWWWKRLL, reference compound]	0.98	7.8	1.95	62.5	15.6				
RRLLRKWWWKRLL-NH2 (C-terminus assumed) [Sample 2, RRLLRKWWWKRLL]	1.95	3.9	1.95	62.5	3.9	15.6	3.9	7.8	
RLLRKWWWKRLL-NH2 (C-terminus assumed) [Sample 1, RLLRKWWWKRLL]	1.95	3.9	1.95	62.5	3.9		7.8	15.6	15.6
RRRLLRKWWWKRLL-NH2 (C-terminus assumed) [Sample 3, RRRLLRKWWWKRLL]	1.95	7.8	1.95	62.5	3.9		3.9	15.6	15.6
